Data from patent US8497278B2, “Imidazo[1,2-a]pyridine compounds” (priority 2008, dated 2013).

Key:
[1] = target: T1, α5 subtype containing GABA-A receptors (Homo sapiens, UniProt P18507+P31644); assay: Two-electrode voltage clamp electrophysiology in Xenopus oocytes, potentiation of GABA EC20 response, α5; assay type: cell-based; conditions: 100 nM compound
T1 construct: expressed in transfected cells; host or cells: Xenopus laevis oocytes, cRNA injected
Description: (§1) Electrophysiology protocol: Oocytes were prepared from adult female Xenopus laevis frogs. cRNA encoding human α1, α2, α3, α5, β3 and γ2L GABAA receptor subunits was injected into the cytoplasm of stage 5 or 6 oocytes using the Robocyte Robot (Multi Channel Systems, Reutlingen, Germany). Two-electrode voltage clamp recordings were made in 96-well plates using the Robocyte Robot. Oocytes were impaled using recording heads with two glass electrodes containing 1.5 M potassium acetate and 0.5 M KCl and held at a membrane potential of −80 mV. Oocytes were continually perfused with a ND96 solution (96 mM NaCl, 2 mM KCl, 0.1 mM CaCl2, and 5 mM HEPES, pH 7.5) using a Gilson 222 XL Liquid Handler and Gilson Minipuls 3 Peristaltic Pump (Gilson Medical Electronics, Middleton, Wis., USA). The protocol consisted of three 20-s applications of GABA that gave a 20% of the maximum response (EC20: 60 μM) to allow for headroom to determine a baseline GABA response. To assess the potentiation, oocytes were first exposed to a single 1 μM chlordiazepoxide (CDP) as a potentiation standard. Oocytes with insufficient expression levels (currents below threshold) or insufficient γ2L subunit incorporation (judged by rapid desensitization upon GABA application, or by insufficient potentiation by CDP) were not included in analysis. Following this control application, a given oocyte was exposed to test compounds at 100 nM concentrations. Only one concentration of one compound was tested per oocyte. […] One skilled in the art will recognize that subtypes contribute to the effects of GABA-A modulators. Such that compounds favoring different subtypes can have different therapeutic effects. The magnitude of modulation, for example, partial modulators can influence the effects in vivo. “++” indicates a greater modulation that “+” so that at any given subtype “++” inducates a greater amount of modulation for that subtype. In some embodiments, modulation favoring alpha 1 relative to alpha2 and/or alpha 3 can have sedative hypnotic effects. In other embodiments, compounds with reduced selectivity of alpha 1 can express anxiolytic effects with less sedation. Compounds with selectivity for alpha 5 can have memory/cognition enhancing effects.

[2] = target: T2, α1 subtype containing GABA-A receptors (Homo sapiens, UniProt P14867+P18507); assay: Two-electrode voltage clamp electrophysiology in Xenopus oocytes, potentiation of GABA EC20 response, α1; assay type: cell-based; conditions: 100 nM compound; for activation at 0.1 µM: read-out: Percentage of potentiation alpha1
T2 construct: expressed in transfected cells; host or cells: Xenopus laevis oocytes, cRNA injected
In short: (§2)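 TEVC, oocytes expressing human αx/β3/γ2L GABA-A; Vh −80 mV; ND96 pH 7.5 perfusion. 3 × 20-s GABA EC20 (60 μM) baseline → 1 μM CDP standard → compound 100 nM. Low-current or poorly γ2L-incorporating oocytes excluded.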

[3] = target: T3, α2 subtype containing GABA-A receptors (Homo sapiens, UniProt P18507+P47869); assay: Two-electrode voltage clamp electrophysiology in Xenopus oocytes, potentiation of GABA EC20 response, α2; assay type: cell-based; conditions: 100 nM compound; for activation at 0.1 µM: read-out: Percentage of potentiation alpha2
T3 construct: expressed in transfected cells; host or cells: Xenopus laevis oocytes, cRNA injected
In short: as §2

[4] = target: T4, α3 subtype containing GABA-A receptors (Homo sapiens, UniProt P18507+P34903); assay: Two-electrode voltage clamp electrophysiology in Xenopus oocytes, potentiation of GABA EC20 response, α3; assay type: cell-based; conditions: 100 nM compound; for activation at 0.1 µM: read-out: Percentage of potentiation alpha3
T4 construct: expressed in transfected cells; host or cells: Xenopus laevis oocytes, cRNA injected
Description: as §1

[5] = system: central benzodiazepine receptors; assay: Central benzodiazepine receptor binding (test of Speth et al.); conditions: 1000 nM of the compound
In short: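 Values are percent inhibition of central benzodiazepine receptor binding at 1000 nM compound (initial single-point screen at 1.0E-09, 1.0E-07 and 1.0E-05 M). Speth et al. binding test; nonspecific binding defined with excess unlabelled ligand and subtracted from total.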

Swiss Webster (CFW) mice = assay: Four Plate Test (FPT); assay type: in vivo; conditions: mouse, 30 min before test, 2 min session
Description: Four Plate Test (FPT) Protocol: The four plate test (FPT) is an animal model of anxiety in which simple ongoing behavior (exploration of novel surroundings) is suppressed by the delivery of mild electric foot-shock contingent to quadrant crossing (Aron, et al., 1971). Clinically effective classes of anxiolytic compounds such as benzodiazepines, selective serotonin reuptake inhibitors, or 5-HT1A receptor agonists produce a marked anti-punishment effect (an increase in punished crossings), which is thought to indicate anxiolytic activity (Aron, et al., 1971; Bourin, et al., 1992; Hascoet, et al., 2000; Ring, et al., 2006). The four plate apparatus (Bioseb, Chaville France) consists of a cage (18×25×16 cm) floored by four identical rectangular metal plates (8×11 cm) separated from one another by a gap of 4 mm. The plates are connected to a shocker unit that can generate electric foot shocks.
Male Swiss Webster (CFW) mice from Charles River (Wilmington, Mass.) were used for the FPT. Mice were received at 3-weeks of age. Upon receipt, mice were assigned unique identification numbers (tail marked) and were group housed with 4 mice per cage in mouse ventilated racks. All animals remained housed in groups of four during the remainder of the study. All mice were acclimated to the colony room for at least one week prior to testing and were subsequently tested at an average age of 4 weeks of age. During the period of acclimation, mice […] were examined on a regular basis, handled, and weighed to assure adequate healtH, D and suitability. Animals were maintained on a 12/12 light/dark cycle. The room temperature was maintained between 20 and 23° C. with a relative humidity maintained between 30% and 70%. Chow and water were provided ad libitum for the duration of the study. In each test, animals were randomly assigned across treatment groups. Alprazolam (0.3 mg/kg) was used as the positive control. Compounds of the present invention, vehicle (45% hydroxypropyl beta-cyclodextrin) and alprazolam were administered orally to all groups (n=10 mice per group) 30 minutes prior to behavioral testing. Following pretreatment, mice were gently placed in the four plate chamber and allowed to explore the enclosure for 18 seconds. After the exploration period, every time the mouse crossed from one plate to another, the experimenter, blind to the dosing conditions, administered a mild electric foot-shock, and referred to as a punished crossing. The intensity and duration of the foot-shock were 0.5 mA for 0.5 seconds. The number of punished crossings was recorded during the 2 min test session. The plates were thoroughly cleaned with 70% ethanol immediately after each mouse. All data were analyzed using an analysis of variance (ANOVA) followed by Fisher's PLSD post hoc test. An effect was considered significance if p<0.05. Statistical outliers above or below 2 standard deviations from the mean in any of the […] were removed from the final analysis.

T4 sequence (P34903 29-492): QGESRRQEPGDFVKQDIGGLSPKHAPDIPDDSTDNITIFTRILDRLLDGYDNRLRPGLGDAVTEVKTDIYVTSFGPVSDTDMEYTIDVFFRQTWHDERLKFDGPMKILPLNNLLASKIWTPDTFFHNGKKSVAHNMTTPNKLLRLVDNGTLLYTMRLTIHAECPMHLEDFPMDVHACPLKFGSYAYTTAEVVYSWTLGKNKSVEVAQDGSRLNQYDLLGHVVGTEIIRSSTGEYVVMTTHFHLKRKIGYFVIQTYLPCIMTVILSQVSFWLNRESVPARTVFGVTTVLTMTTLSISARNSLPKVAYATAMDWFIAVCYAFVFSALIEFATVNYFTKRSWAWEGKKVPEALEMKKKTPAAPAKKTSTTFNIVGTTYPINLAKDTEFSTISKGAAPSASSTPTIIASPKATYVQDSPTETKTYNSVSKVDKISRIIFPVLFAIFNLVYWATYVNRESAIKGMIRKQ
T4 sequence (P28472 26-473 partner): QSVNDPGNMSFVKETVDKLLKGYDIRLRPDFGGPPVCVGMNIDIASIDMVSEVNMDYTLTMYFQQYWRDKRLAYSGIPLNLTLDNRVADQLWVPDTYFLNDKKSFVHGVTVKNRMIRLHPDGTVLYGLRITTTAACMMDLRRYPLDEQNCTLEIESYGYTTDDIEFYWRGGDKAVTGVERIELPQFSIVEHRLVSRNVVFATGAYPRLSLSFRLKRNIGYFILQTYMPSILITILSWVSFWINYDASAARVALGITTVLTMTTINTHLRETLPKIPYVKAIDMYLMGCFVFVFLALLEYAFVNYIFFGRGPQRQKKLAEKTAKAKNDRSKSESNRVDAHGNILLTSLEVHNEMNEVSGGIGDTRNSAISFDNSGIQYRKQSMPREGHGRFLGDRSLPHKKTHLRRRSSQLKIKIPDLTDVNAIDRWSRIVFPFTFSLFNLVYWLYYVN
T4 sequence (P18507 40-475): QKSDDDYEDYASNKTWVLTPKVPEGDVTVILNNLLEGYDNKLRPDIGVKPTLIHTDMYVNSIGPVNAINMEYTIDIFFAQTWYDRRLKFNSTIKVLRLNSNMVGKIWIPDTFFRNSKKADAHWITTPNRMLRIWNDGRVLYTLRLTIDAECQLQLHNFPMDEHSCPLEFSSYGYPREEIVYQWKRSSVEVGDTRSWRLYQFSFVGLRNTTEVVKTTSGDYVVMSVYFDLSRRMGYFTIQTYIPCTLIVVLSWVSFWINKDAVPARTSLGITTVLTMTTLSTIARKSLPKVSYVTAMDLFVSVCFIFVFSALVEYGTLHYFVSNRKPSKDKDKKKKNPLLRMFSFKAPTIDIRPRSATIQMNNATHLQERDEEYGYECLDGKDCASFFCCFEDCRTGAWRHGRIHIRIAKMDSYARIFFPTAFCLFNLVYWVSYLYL
T2 sequence (P14867 28-456): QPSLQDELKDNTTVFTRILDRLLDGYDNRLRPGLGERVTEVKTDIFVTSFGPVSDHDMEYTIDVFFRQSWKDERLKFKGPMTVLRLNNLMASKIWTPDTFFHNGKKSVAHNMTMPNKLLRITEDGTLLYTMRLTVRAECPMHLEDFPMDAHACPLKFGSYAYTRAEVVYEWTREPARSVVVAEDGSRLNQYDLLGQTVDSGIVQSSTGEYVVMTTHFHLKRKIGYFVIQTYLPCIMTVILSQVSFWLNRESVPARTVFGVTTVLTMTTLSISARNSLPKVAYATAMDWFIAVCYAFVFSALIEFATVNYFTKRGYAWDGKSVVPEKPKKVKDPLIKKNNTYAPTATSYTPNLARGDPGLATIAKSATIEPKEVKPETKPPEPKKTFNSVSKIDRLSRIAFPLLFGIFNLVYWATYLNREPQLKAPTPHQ
T2 sequence (P28472 26-473 partner): as the sequence (P28472 26-473 partner) above
T2 sequence (P18507 40-475): as the sequence (P18507 40-475) above
T1 sequence (P31644 32-462): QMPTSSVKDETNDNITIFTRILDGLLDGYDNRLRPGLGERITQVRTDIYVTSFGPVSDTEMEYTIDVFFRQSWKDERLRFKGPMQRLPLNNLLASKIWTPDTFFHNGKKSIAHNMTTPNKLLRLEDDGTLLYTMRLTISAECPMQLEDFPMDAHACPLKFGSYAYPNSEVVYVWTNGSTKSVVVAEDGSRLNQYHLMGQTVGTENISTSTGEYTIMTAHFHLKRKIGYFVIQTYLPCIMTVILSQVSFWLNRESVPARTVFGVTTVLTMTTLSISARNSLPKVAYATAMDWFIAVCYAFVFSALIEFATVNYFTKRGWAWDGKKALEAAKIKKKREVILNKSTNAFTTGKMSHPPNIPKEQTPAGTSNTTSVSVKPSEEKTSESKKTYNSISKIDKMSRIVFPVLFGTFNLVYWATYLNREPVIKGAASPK
T1 sequence (P28472 26-473 partner): as the sequence (P28472 26-473 partner) above
T1 sequence (P18507 40-475): as the sequence (P18507 40-475) above
T3 sequence (P47869 29-451): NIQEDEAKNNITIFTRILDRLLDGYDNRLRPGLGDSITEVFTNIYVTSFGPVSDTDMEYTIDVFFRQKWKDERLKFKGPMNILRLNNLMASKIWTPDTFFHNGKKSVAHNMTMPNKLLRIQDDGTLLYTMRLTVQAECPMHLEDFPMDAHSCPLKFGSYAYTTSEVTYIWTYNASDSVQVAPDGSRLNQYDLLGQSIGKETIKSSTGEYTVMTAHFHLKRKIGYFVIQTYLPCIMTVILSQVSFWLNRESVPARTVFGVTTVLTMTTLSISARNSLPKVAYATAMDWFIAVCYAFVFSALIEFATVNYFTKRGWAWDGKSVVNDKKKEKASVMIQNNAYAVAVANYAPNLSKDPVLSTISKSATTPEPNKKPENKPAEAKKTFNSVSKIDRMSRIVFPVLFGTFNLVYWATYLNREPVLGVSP
T3 sequence (P28472 26-473 partner): as the sequence (P28472 26-473 partner) above
T3 sequence (P18507 40-475): as the sequence (P18507 40-475) above

| Structure (SMILES) | Percentage of potentiation alpha5 [1] | Percentage of potentiation alpha1 [2] | Percentage of potentiation alpha2 [3] | Percentage of potentiation alpha3 [4] | % Inhibition at 1000 nM for CBZD [5] | Number of Punished Crossings Mean ± S.E.M. (Swiss Webster (CFW) mice; 3 mg/kg PO) | Number of Punished Crossings Mean ± S.E.M. (Swiss Webster (CFW) mice; 10 mg/kg PO) | Number of Punished Crossings Mean ± S.E.M. (Swiss Webster (CFW) mice; 30 mg/kg PO) | activation at 0.1 µM [2] [%] | activation at 0.1 µM [3] [%] | activation at 0.1 µM [4] [%] | activation at 0.1 µM ([1]; read-out: Percentage of potentiation alpha5) [%] |
| --- | --- | --- | --- | --- | --- | --- | --- | --- | --- | --- | --- | --- |
| Cc1ccc(-c2nc3ccc(C)cn3c2Cn2cnc3ncccc32)cc1 [Compound 15, 1-((6-Methyl-2-p-tolylH-imidazo[1,2-a]pyridin-3-yl)methyl)-1H-imidazo[4,5-b]pyridine] | 0 (percentage of potentiation is between about 10% to about −10%) | + (percentage of potentiation is greater than or equal to 10% but less than 50% in the presence of 100 nM of the compound) | + (percentage of potentiation is greater than or equal to 10% but less than 50% in the presence of 100 nM of the compound) | + (percentage of potentiation is greater than or equal to 10% but less than 50% in the presence of 100 nM of the compound) | ++ (percentage of inhibition of central BZD site binding is greater than 80% in the presence of 1000 nM of the compound) | – | – | – | – | – | – | – |
| Fc1ccc(-c2nc3ccc(F)cn3c2Cn2ccnn2)cc1 [Compound 61, 3-((1H-1,2,3-triazol-1-yl)methyl)-6-fluoro-2-(4-fluorophenyl)H-imidazo[1,2-a]pyridine] | – | + (percentage of potentiation is greater than or equal to 10% but less than 50% in the presence of 100 nM of the compound) | + (percentage of potentiation is greater than or equal to 10% but less than 50% in the presence of 100 nM of the compound) | ++ (percentage of potentiation is greater than or equal to 50% in the presence of 100 nM of the compound) | ++ (percentage of inhibition of central BZD site binding is greater than 80% in the presence of 1000 nM of the compound) | – | – | – | – | – | – | – |
| NC(=O)c1nccn1Cc1c(-c2ccc(Cl)cc2)nc2ccccn12 [Compound 76, 1-((2-(4-chlorophenyl)H-imidazo[1,2-a]pyridin-3-yl)methyl)-1H-imidazole-2-carboxamide] | – | 0 (percentage of potentiation is between about 10% to about −10%) | + (percentage of potentiation is greater than or equal to 10% but less than 50% in the presence of 100 nM of the compound) | – | ++ (percentage of inhibition of central BZD site binding is greater than 80% in the presence of 1000 nM of the compound) | 6.7 ± 0.45 | 6.9 ± 0.35 | 6.3 ± 0.62 | – | – | – | – |
| COC1=CC(=O)N(Cc2c(-c3ccc(Cl)cc3)nc3ccc(Cl)cn23)C1 [Compound 114, 1-((6-chloro-2-(4-chlorophenyl)H-imidazo[1,2-a]pyridin-3-yl)methyl)-4-methoxy-1H-pyrrol-2(5H)-one] | 0 (percentage of potentiation is between about 10% to about −10%) | ++ (percentage of potentiation is greater than or equal to 50% in the presence of 100 nM of the compound) | + (percentage of potentiation is greater than or equal to 10% but less than 50% in the presence of 100 nM of the compound) | + (percentage of potentiation is greater than or equal to 10% but less than 50% in the presence of 100 nM of the compound) | – | – | – | – | – | – | – | – |
| CN1CC[C@@H](Oc2ccnc(NCc3c(-c4ccc(F)cc4)nc4ccc(Cl)cn34)n2)C1 [Compound 183, (R)—N-((6-chloro-2-(4-fluorophenyl)imidazo[1,2-a]pyridin-3-yl)methyl)-4-(1-methylpyrrolidin-3-yloxy)pyrimidin-2-amine] | – | – | – | – | ++ (percentage of inhibition of central BZD site binding is greater than 80% in the presence of 1000 nM of the compound) | – | – | – | ≥ 50 | ≥ 50 | -10 to 10 | – |
| NNC(=O)c1nc(Cc2c(-c3ccc(Cl)cc3)nc3ccc(F)cn23)no1 [Compound 216, 3-((2-(4-chlorophenyl)-6-fluoroimidazo[1,2-a]pyridin-3-yl)methyl)-1,2,4-oxadiazole-5-carbohydrazide] | – | – | – | – | – | – | – | – | 10 to 50 | ≥ 50 | 10 to 50 | -10 to 10 |
| CNC(=O)c1nc(Cc2c(-c3ccc(F)cc3)nc3ccc(F)cn23)no1 [Compound 220, 3-((2-(4-fluorophenyl)-6-fluoroimidazo[1,2-a]pyridin-3-yl)methyl)-1,2,4-oxadiazole-5-N-methyl-carboxamide] | 0 (percentage of potentiation is between about 10% to about −10%) | 0 (percentage of potentiation is between about 10% to about −10%) | + (percentage of potentiation is greater than or equal to 10% but less than 50% in the presence of 100 nM of the compound) | 0 (percentage of potentiation is between about 10% to about −10%) | – | – | – | – | – | – | – | – |
| CN(C)CCNC1=CC(=O)N(Cc2c(-c3ccc(Br)cc3)nc3ccccn23)C1 [Compound 242, 1-((2-(4-bromophenyl)imidazo[1,2-a]pyridin-3-yl)methyl)-4-(2-(dimethylamino)ethylamino)-1H-pyrrol-2(5H)-one] | – | – | – | – | ++ (percentage of inhibition of central BZD site binding is greater than 80% in the presence of 1000 nM of the compound) | – | – | – | 10 to 50 | 10 to 50 | -10 to 10 | – |
